Measurements published in patent US12161723B2, “Water-based cannabinoid and opioid compositions” (DAY THREE LABS MAN[…]., priority 2014, dated 2024).

Assays:
BSA [1] = biological target: T1, BSA (Bos taurus, UniProt P02769); test: Cannabis extract combined with albumin solution, cannabinoids adsorbed to BSA (Example 2a); type: binding, bovine; conditions: albumin solution 10 mg/ml (BSA) with 20% ethanol, 2 hours at room temperature
Protocol: (§1) Cannabis extract was prepared as follows: In short, cannabis plant matter is dried, ground and homogenized to form ground cannabis. The ground cannabis is extracted with methanol/chloroform (volume/volume ratio of 9:1). Sonication and filtration is then performed. Identity of cannabinoids is determined by HPLC by evaporation, dissolution in an appropriate solvent.
(§2) Drying of the cannabis plant matter occurs under high vacuum at about 37±2° C. for about 24 hours and then ground to form a fine powder. 200 mg of ground powder is combined with 10 ml of methanol/chloroform, and sonicated in an ice bath for 30 minutes at maximum power. The supernatant is then filtered through a 0.2 micron filter.
(§3) A sample of the cannabis extract was analyzed for content of cannabinoids. The cannabis extract was then combined with albumin solution having 20% ethanol at 10 mg/ml (BSA) and incubated for 2 hours at room temperature.

[2] = biological target: T2, bovine serum albumin (BSA) (Bos taurus, UniProt P02769); test: Cannabis smoke bubbled through aqueous BSA solution, cannabinoids determined by HPLC (Example 1a); type: binding; conditions: BSA in Hartmann's solution; FIG. 2A
T2 construct: purchased Millipore, USA
Protocol: Protein-bound cannabinoid was formed according to the following method. An aqueous albumin solution was prepared by adding 20 (mg)) of bovine serum albumin (BSA, from Millipore, USA) to 10 milliliters (ml) ml Hartmann's solution (B. Braun Melsungen AG, Germany). BSA was completely dissolved using a shaker (Heidolph POLYMAX 1040) at 50 revolutions per minute.
A cannabis-filled cigarette was formed using a cigarette paper containing 0.8 gr ground cannabis (provided by “Seach” Israel), from flowers and budding leaves. A Pasteur pipette was cut longitudinally at its wide end, and the cigarette was lodged in to the cut end. The narrow end of the pipette was attached to a syringe. The cigarette was lit in a fume hood, and cigarette smoke was collected in the syringe by pulling the syringe plunger. The smoke was then slowly released into the BSA solution by depressing the plunger. Approximately 350 ml of smoke-containing air was gently bubbled through the BSA solution.
As a control, a solution of 10 ml of Hartmann's solution was prepared without the addition of BSA and a similar procedure of cannabis smoke formation and bubbling was performed.
Samples having a volume of 3 ml of the BSA solution and the control solution were each inserted in to HPLC glass vials and the open vials were inserted into a vacuum oven for 24 hours at 37° Celsius.
The solid phase after the evaporation was crushed in to a fine powder using mortar and pestle. The powder was extracted using Methanol chloroform 9:1 extract solution, sonicated for 30 minutes, and was then filtered and added in to an HPLC testing tube.
HPLC was performed using an HP1050 AGILENT, DAD detector, XBridge C18 3.5 μm 4.6×150 mm column, and according to the following parameters: […]

[3] = Cannabinoid content of cannabis extract (Example 2a); type: physicochemical; conditions: methanol/chloroform 9:1 cannabis extract
Protocol: as §1, §2, §3

BSA [4] = biological target: T1, BSA; test: Cannabis smoke/vapor passed through BSA/water/ethanol solution, cannabinoid profile (Example 1d); type: binding, bovine; conditions: 33% ethanol, 48 hours incubation, washed
Protocol: (§4) To show which cannabinoid compounds are solubilized in processes using BSA versus organic solvents, cannabis from two different batches was smoked and or vaporized. Vapor was formed using a “volcano” vaporizer at a temperature of 210° C. The smoke/vapor was passed through either a BSA/water/ethanol solution described in example 1b, comprising 33% by volume ethanol or through a pure ethanol (99% ethanol) solution. Solutions were stirred using a magnetic stirrer and were incubated for 48 hours, during which time, most of the ethanol evaporated. One of the batches of cannabis was high in THC, and the other batch of cannabis was high in both THC and CBD.
The BSA/water/ethanol solution was washed after smoke or vapor was combined with it, and the amount of cannabinoids present was analyzed. The results of the comparison of relative concentration of cannabinoids (relative to total cannabinoid content) as expressed in percent (weight/weight), for a strain of cannabis high in THC are shown in the table below.

albumin (BSA) = albumin (BSA) (Bos taurus, UniProt P02769); test: Ethanolic cannabinoid solution mixed with aqueous albumin, protein-bound cannabinoid quantified (Example 2b); type: binding, bovine; set-up: protein-bound cannabinoid quantified, Vapor: unit not given beside the values; conditions: 100 microliters ethanolic solution + 500 microliters 5 mg/ml BSA, 30° C., 12 hours, non-adsorbed cannabinoids separated
Protocol: 100 microliters of ethanolic cannabinoid solution from cannabis vapor and cannabis smoke were each mixed with 500 microliters of aqueous albumin solution that had been prepared at a concentration of 5 mg albumin (BSA)/ml. The aqueous albumin solution combined with the ethanolic cannabinoid solution was incubated at 30° C. for 12 hours in open tubes. After 12 hours, the tubes were mixed and centrifuged, and non-adsorbed cannabinoids were separated from the solution. Concentrated protein-bound cannabinoid was dried and quantified as described below.

ovalbumin (hen) = biological target: T3, ovalbumin (hen) (Gallus gallus, UniProt P01012); test: Cannabis vapor streamed through protein solution, cannabinoids adsorbed (Example 1f); type: binding; conditions: vapor of cannabis high in CBD; 1 mg/ml protein, ethanol:water 1:2, 30° C., 24 hours
T3 sequence (P01012 1-386): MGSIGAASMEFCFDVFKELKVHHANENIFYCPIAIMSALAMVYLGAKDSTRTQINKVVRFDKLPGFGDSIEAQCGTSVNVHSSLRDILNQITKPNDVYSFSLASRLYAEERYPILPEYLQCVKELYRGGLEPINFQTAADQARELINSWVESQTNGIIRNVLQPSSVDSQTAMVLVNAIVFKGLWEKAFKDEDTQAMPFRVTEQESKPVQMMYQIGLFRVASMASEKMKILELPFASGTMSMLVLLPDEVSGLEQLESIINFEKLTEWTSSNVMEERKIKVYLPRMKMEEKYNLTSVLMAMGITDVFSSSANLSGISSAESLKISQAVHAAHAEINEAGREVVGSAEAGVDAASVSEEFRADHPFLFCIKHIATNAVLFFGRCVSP
Protocol: (§5) The protein solutions were formed using ethanol and water in a 1:2 ratio. The solutions were incubated at 30° C. for 24 hours.

[5] = biological target: T4, rice recombinant human serum albumin (HSA) (Homo sapiens, UniProt P02768); test: as above; type: binding; conditions: vapor of cannabis high in CBD; 1 mg/ml protein, ethanol:water 1:2, 30° C., 24 hours
T4 construct: host or cells: rice (recombinant expression host)
Protocol: as §5

bovine γ-globulin = test: as above; type: binding; conditions: vapor of cannabis high in CBD; 1 mg/ml protein, ethanol:water 1:2, 30° C., 24 hours
Protocol: as §5

[6] = 3 g high THC strain; 200 ml ethanol concentrated to about 3 ml
[7] = Cannabis smoke/vapor passed through pure ethanol, cannabinoid profile (Example 1d); type: physicochemical; conditions: for relative concentration of cannabinoids (relative to total cannabinoid content), Vapor passed through ethanol: vapor at 210° C.
Protocol: as §4

[8] = strain of cannabis high in CBD and THC

T4 sequence (P02768 25-609): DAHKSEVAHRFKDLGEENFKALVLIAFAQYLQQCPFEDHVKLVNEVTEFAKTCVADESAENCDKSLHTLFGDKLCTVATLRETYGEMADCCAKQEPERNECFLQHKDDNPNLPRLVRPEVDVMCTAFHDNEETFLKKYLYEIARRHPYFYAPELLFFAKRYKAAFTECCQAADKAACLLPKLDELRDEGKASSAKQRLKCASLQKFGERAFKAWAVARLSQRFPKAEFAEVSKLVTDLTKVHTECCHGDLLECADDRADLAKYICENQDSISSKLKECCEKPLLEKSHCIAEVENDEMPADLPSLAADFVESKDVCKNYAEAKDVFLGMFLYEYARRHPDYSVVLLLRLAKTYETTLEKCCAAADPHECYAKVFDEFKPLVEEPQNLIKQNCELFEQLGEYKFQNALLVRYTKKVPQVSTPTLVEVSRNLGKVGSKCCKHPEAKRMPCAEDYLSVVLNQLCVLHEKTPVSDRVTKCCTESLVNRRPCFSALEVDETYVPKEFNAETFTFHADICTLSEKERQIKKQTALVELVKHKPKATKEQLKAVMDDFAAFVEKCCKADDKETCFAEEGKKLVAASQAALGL
albumin (BSA), sequence (P02769 25-607): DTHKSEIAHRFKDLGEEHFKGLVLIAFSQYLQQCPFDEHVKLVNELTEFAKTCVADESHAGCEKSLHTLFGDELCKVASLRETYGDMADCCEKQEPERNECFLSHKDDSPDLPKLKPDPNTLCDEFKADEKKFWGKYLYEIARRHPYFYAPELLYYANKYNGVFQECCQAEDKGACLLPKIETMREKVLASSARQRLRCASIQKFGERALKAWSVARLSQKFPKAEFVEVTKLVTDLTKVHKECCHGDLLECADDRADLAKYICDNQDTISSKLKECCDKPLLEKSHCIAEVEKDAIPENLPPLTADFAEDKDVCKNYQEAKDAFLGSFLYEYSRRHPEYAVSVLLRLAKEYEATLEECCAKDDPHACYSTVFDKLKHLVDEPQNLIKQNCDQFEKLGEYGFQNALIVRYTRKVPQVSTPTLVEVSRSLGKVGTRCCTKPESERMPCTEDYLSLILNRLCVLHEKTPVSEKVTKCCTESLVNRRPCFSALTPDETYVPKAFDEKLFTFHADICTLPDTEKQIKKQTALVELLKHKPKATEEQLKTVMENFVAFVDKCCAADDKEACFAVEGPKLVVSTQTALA
T1 sequence (P02769 25-607): as above
T2 sequence (P02769 25-607): as above

Row | SMILES | percentage of each cannabinoid relative to total cannabinoids adsorbed to protein, Adsorbed to BSA after extract combined with BSA solution (BSA [1]) [percentage] | active cannabinoids found by HPLC in BSA aqueous solution after cannabis smoke was introduced [2] | percentage of each cannabinoid relative to total cannabinoids, Extract [3] [percentage] | relative concentration of cannabinoids (relative to total cannabinoid content), Smoke passed through BSA/water/ethanol (BSA [4]; [8]) | relative concentration of cannabinoids (relative to total cannabinoid content), Vapor passed through BSA/water/ethanol (BSA [4]; [8]) | relative concentration of cannabinoids (relative to total cannabinoid content), Smoke passed through BSA/water/ethanol (BSA [4]; strain of cannabis high in THC) | protein-bound cannabinoid quantified, Smoke (albumin (BSA)) | protein-bound cannabinoid quantified, Vapor (albumin (BSA)) | percentage of each cannabinoid relative to total cannabinoids adsorbed to protein, Ovalbumin (ovalbumin (hen)) [percentage] | percentage of each cannabinoid relative to total cannabinoids adsorbed to protein, Rice recombinant HSA [5] [percentage] | percentage of each cannabinoid relative to total cannabinoids adsorbed to protein, Bovine γ-globulin (bovine γ-globulin) [percentage] | amount of cannabinoids dissolved in ethanol, Smoke [6] [micrograms/ml] | amount of cannabinoids dissolved in ethanol, Vapor [6] [micrograms/ml] | relative concentration of cannabinoids (relative to total cannabinoid content), Smoke passed through ethanol [7, 8] | relative concentration of cannabinoids (relative to total cannabinoid content), Vapor passed through ethanol [7, 8] | relative concentration of cannabinoids (relative to total cannabinoid content), Smoke passed through ethanol ([7]; strain of cannabis high in THC) | relative concentration of cannabinoids (relative to total cannabinoid content), Vapor passed through ethanol ([7]; strain of cannabis high in THC)
1 | CCCCCc1cc(O)c2c(c1)OC(C)(C)c1ccc(C)cc1-2 [CBN, cannabinol] | 2 | dissolved in the solution | 2 | 0.0 percent (weight/weight) | 0.0 percent (weight/weight) | 0.0 percent (weight/weight) | 6.5 | 4.855 | 0 | 0 | 0 | 276.856 | 135.5254 | 1.6 percent (weight/weight) | 0.0 percent (weight/weight) | 1.7 percent (weight/weight) | 1.6 percent (weight/weight)
2 | CCCCCc1cc(O)c2c(c1)OC(C)(CCC=C(C)C)C=C2 (stereo not drawn) [CBC, cannabichromene] | 3 | dissolved in the solution | 1 | 0.0 percent (weight/weight) |  | 0.0 percent (weight/weight) | 2.13 | 1.845 |  | 0 | 0 | 90.873 | 54.7468 | 3.1 percent (weight/weight) | 3.8 percent (weight/weight) | 1.3 percent (weight/weight) | 0.0 percent (weight/weight)
3 | C=C(C)[C@@H]1CCC(C)=C[C@H]1c1c(O)cc(CCCCC)c(C(=O)O)c1O [CBDA, cannabidiolic acid] | 0 |  | 1 | 39.8 percent (weight/weight) | 23.6 percent (weight/weight) | 0.0 percent (weight/weight) | 0 | 0 | 2.4 | 46 | 0 | 0 | 3.1218 | 2.3 percent (weight/weight) | 1.6 percent (weight/weight) | 0.9 percent (weight/weight) | 0.4 percent (weight/weight)
